{
  "source": "patent US5545399A",
  "about": "“Cosmetic composition” (Chesebrough-Pond's USA Co., priority 1993, dated 1996)",
  "key": {"[1]": {"system": "Pigment producing cells derived from a mammalian melanoma", "assay": "In vitro melanocyte cell culture: melanin production (absorbance at 540 nm of melanin released into the medium)", "assay_type": "cell-based", "details": "for activity at 300 µM: dihydrophloretin 0.3 mM; for activity at 100 µM: dihydrophloretin 0.1 mM; for activity at 230 µM: dihydrophloretin 0.23 mM; for melanin production as percentage of control / % pigmentation: 5760 min", "method": "Test method--In vitro melanocyte cell culture Pigment producing cells derived from a mammalian melanoma are grown in culture by standard methods. Preferred cell lines are B16 or S-91 cells, but other lines or primary mouse or human melanocytes can be used. Melanoma cells are grown in cell culture medium such as RPMI 1640 (GIBCO) supplemented with fetal calf serum and glutamine to approximately 1/3 confluence. The active is dissolved in culture medium, the pH adjusted as required and sterile filtered. The solution is then added to the cells. The cells are cultured for a further period of 4 days and the amount of melanin produced assayed by measuring the absorbance at 540 nm of the melanin released into the medium. The above procedure was used to assess the ability of compositions of (a) dihydrophloretin alone and (b) dihydrophloretin plus retinol to reduce the amount of melanin produced."}, "Melanoma cells": {"system": "Melanoma cells", "assay": "in vitro", "assay_type": "cell-based, mammalian", "method": "(§1) Pigment producing cells derived from a mammalian melanoma are grown in culture by standard methods. Preferred cell lines are B16 or S-91 cells, but other lines or primary mouse or human melanocytes can be used.\n(§2) Melanoma cells are grown in cell culture medium such as RPMI 1640 (GIBCO) supplemented with fetal calf serum and glutamine to approximately 1/3 confluence. The active is dissolved in culture medium, the pH adjusted as required and sterile filtered. The solution is then added to the cells.\n(§3) Cell viability in the presence of the inhibitor is tested using neutral red (3-amino-7-dimethylamino-2-methyl phenazine hydrochloride) a water soluble vital dye which passes through the intact plasma membrane and becomes concentrated in lysosomes of viable cells. For any culture, the amount of dye taken up is proportional to the number of viable cells and agents that damage cell and lysosomal membranes inhibit dye incorporation.\n(§4) The cells are incubated in 50 μg/ml neutral red solution for 3 hours at 37° C. in 5% CO2 in air. The solution is aspirated, the cells washed once in saline and to them added a solvent (50% H2 O, 49% ethanol, 1% acetic acid) to solubilise the dye. The amount of neutral red dye is quantified by measuring absorbance at 540 nm.\n(§5) The above procedure was used to assess the ability of compositions of (a) dihydrophloretin alone and (b) dihydrophloretin plus retinol to reduce the amount of melanin produced.\n(§6) The results for melanin production were calculated as percentages of control which contained medium alone. There was no effect on viability at the concentrations of actives reported."}, "in vitro": {"assay": "in vitro", "assay_type": "cell-based, mammalian", "details": "melanoma cells", "method": "as §1, §2, §3, §4, §5, §6"}, "[2]": {"details": "Melanocyte, 96 h, Table 4, trans retinol 0, read-out: melanin production as percentage of control"}, "[3]": {"details": "Melanocyte, 96 h, Table 5, retinol 0, n 3, read-out: % pigmentation"}},
  "note": "Read-outs that look alike come from different tables or passages of the source.",
  "data": [
    {"smiles": "Oc1ccc(CCC(O)c2c(O)cc(O)cc2O)cc1", "note": "(stereo not shown) [Dihydrophloretin, dihydrophloretin]", "values": [
      {"measurement": "activity at 10 µM", "setting": "[1]; Melanocyte, 96 h, Table 3, dihydrophloretin 0.01 mM, 4 days, read-out: % of control melanin production", "result": 100, "unit": "%"},
      {"measurement": "activity at 30 µM", "setting": "[1]; Melanocyte, 96 h, Table 3, dihydrophloretin 0.03 mM, 4 days, read-out: % of control melanin production", "result": 99.8, "unit": "%"},
      {"measurement": "activity at 300 µM", "setting": "[1]; Melanocyte, 96 h, Table 3, 4 days, read-out: % of control melanin production", "result": 57, "unit": "%"},
      {"measurement": "activity at 100 µM", "setting": "[1]; [2]", "result": 98.1, "unit": "%"},
      {"measurement": "activity at 170 µM", "setting": "[1]; Melanocyte, 96 h, Table 4, dihydrophloretin 0.17 mM, trans retinol 0, read-out: melanin production as percentage of control", "result": 109, "unit": "%"},
      {"measurement": "activity at 230 µM", "setting": "[1]; [2]", "result": 109, "unit": "%"},
      {"measurement": "activity at 300 µM", "setting": "[1]; [2]", "result": 109, "unit": "%"},
      {"measurement": "activity at 100 µM", "setting": "[1]; [3]", "result": 99, "unit": "%"},
      {"measurement": "activity at 230 µM", "setting": "[1]; [3]", "result": 104, "unit": "%"},
      {"measurement": "activity at 300 µM", "setting": "[1]; Melanocyte, 96 h, Table 5, retinol 0, n 4, read-out: % pigmentation", "result": 94, "unit": "%"},
      {"measurement": "melanin production as percentage of control", "setting": "[1]; Table 4, dihydrophloretin 0.1 mM plus trans retinol 2.0 μm", "result": "120.2 % of control"},
      {"measurement": "melanin production as percentage of control", "setting": "[1]; Table 4, dihydrophloretin 0.1 mM plus trans retinol 6.7 μm, *significantly less (P<0.05) than Control", "result": "82.1 % of control"},
      {"measurement": "melanin production as percentage of control", "setting": "[1]; Table 4, dihydrophloretin 0.17 mM plus trans retinol 2.0 μm", "result": "111.0 % of control"},
      {"measurement": "melanin production as percentage of control", "setting": "[1]; Table 4, dihydrophloretin 0.17 mM plus trans retinol 6.7 μm, *significantly less (P<0.05) than Control", "result": "76.0 % of control"},
      {"measurement": "melanin production as percentage of control", "setting": "[1]; Table 4, dihydrophloretin 0.23 mM plus trans retinol 2.0 μm", "result": "110.0 % of control"},
      {"measurement": "melanin production as percentage of control", "setting": "[1]; Table 4, dihydrophloretin 0.23 mM plus trans retinol 6.7 μm, *significantly less (P<0.05) than Control", "result": "60.9 % of control"},
      {"measurement": "melanin production as percentage of control", "setting": "[1]; Table 4, dihydrophloretin 0.3 mM plus trans retinol 2.0 μm", "result": "104.0 % of control"},
      {"measurement": "melanin production as percentage of control", "setting": "[1]; Table 4, dihydrophloretin 0.3 mM plus trans retinol 6.7 μm, *significantly less (P<0.05) than Control", "result": "34.0 % of control"},
      {"measurement": "% pigmentation", "setting": "[1]; Table 5, dihydrophloretin 0.1 mM plus retinol 2.0 μM, n 1", "result": 120, "unit": "%"},
      {"measurement": "% pigmentation", "setting": "[1]; Table 5, dihydrophloretin 0.1 mM plus retinol 6.7 μM, n 2", "result": 86, "unit": "%"},
      {"measurement": "% pigmentation", "setting": "[1]; Table 5, dihydrophloretin 0.17 mM plus retinol 2.0 μM, n 1", "result": 111, "unit": "%"},
      {"measurement": "% pigmentation", "setting": "[1]; Table 5, dihydrophloretin 0.17 mM plus retinol 6.7 μM, n 2", "result": 73, "unit": "%"},
      {"measurement": "% pigmentation", "setting": "[1]; Table 5, dihydrophloretin 0.23 mM plus retinol 2.0 μM, n 1", "result": 110, "unit": "%"},
      {"measurement": "% pigmentation", "setting": "[1]; Table 5, dihydrophloretin 0.23 mM plus retinol 6.7 μM, n 2", "result": 55, "unit": "%"},
      {"measurement": "% pigmentation", "setting": "[1]; Table 5, dihydrophloretin 0.3 mM plus retinol 6.7 μM, n 1", "result": 34, "unit": "%"},
      {"measurement": "cell viability", "setting": "Melanoma cells", "result": "No adverse effects"},
      {"measurement": "viability at 100 µM", "setting": "in vitro", "result": 100, "unit": "%"},
      {"measurement": "viability at 170 µM", "setting": "in vitro", "result": 100, "unit": "%"},
      {"measurement": "viability at 230 µM", "setting": "in vitro", "result": 100, "unit": "%"},
      {"measurement": "viability at 300 µM", "setting": "in vitro", "result": 100, "unit": "%"}
    ]},
    {"smiles": "CC1=C(/C=C/C(C)=C/C=C/C(C)=C/CO)C(C)(C)CCC1", "note": "[Trans Retinol, retinol, reference compound]", "values": [
      {"measurement": "activity at 2 µM", "setting": "[1]; Melanocyte, 96 h, Table 4, trans retinol 2.0 μm, dihydrophloretin 0, read-out: melanin production as percentage of control", "result": 121, "unit": "%"},
      {"measurement": "activity at 6.7 µM", "setting": "[1]; Melanocyte, 96 h, Table 4, trans retinol 6.7 μm, dihydrophloretin 0, read-out: melanin production as percentage of control", "result": 92.9, "unit": "%"},
      {"measurement": "activity at 2 µM", "setting": "[1]; Melanocyte, 96 h, Table 5, retinol 2.0 μM, dihydrophloretin 0.0, n 1, read-out: % pigmentation", "result": 120, "unit": "%"},
      {"measurement": "activity at 6.7 µM", "setting": "[1]; Melanocyte, 96 h, Table 5, retinol 6.7 μM, dihydrophloretin 0.0, n 2, read-out: % pigmentation", "result": 97, "unit": "%"},
      {"measurement": "cell viability", "setting": "Melanoma cells", "result": "No adverse effects"},
      {"measurement": "viability at 2 µM", "setting": "in vitro", "result": 100, "unit": "%"},
      {"measurement": "viability at 6.7 µM", "setting": "in vitro", "result": 100, "unit": "%"}
    ]}
  ]
}
